Experimental data as given in ChEMBL document CHEMBL1201862, “PubChem BioAssay data set” (2004).
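These data come from cells grown in 96-well plates and exposed to compound for 48 hours at five concentrations. Here, GI50 denotes the concentration required for 50% inhibition of growth.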 Calls of active or inactive are those of the source. Rule as the data show it: active = GI50 up to about 1.1 µM and inactive = higher.

Assays:
Experiment in all cases: NCI tumour cell line growth inhibition, 48 h
A549 = tested on: A549
ACHN = tested on: ACHN
CAKI-1 = tested on: CAKI-1
CCRF-CEM = tested on: CCRF-CEM
EKVX = tested on: EKVX
HL-60 = tested on: HL-60
HOP-92 = tested on: HOP-92
MCF7 = tested on: MCF7
MDA-MB-231 = tested on: MDA-MB-231
MDA-N = tested on: MDA-N
Malme-3M = tested on: Malme-3M
NCI-H23 = tested on: NCI-H23
OVCAR-8 = tested on: OVCAR-8
SF-295 = tested on: SF-295
SK-OV-3 = tested on: SK-OV-3
SW-620 = tested on: SW-620
HOP-62 = tested on: HOP-62
NCI-H522 = tested on: NCI-H522
SR = tested on: SR

Measured: GI50

CCC(=O)NCC1CCCN2CCCCC12 (stereo not given)
inactive: A549 > 100 µM | ACHN > 100 µM | CAKI-1 > 100 µM | CCRF-CEM > 100 µM | EKVX > 100 µM | HL-60 > 100 µM | HOP-92 > 100 µM | MCF7 > 100 µM | MDA-MB-231 > 100 µM | MDA-N > 100 µM | Malme-3M 44.7 µM | NCI-H23 > 100 µM | OVCAR-8 > 100 µM | SF-295 > 100 µM | SK-OV-3 > 100 µM | SW-620 > 100 µM

O=C1/C(=C/c2cccc([N+](=O)[O-])c2)N=C(c2ccccc2)N1c1ccc2c(c1)Sc1cc(N3C(=O)/C(=C/c4cccc([N+](=O)[O-])c4)N=C3c3ccccc3)ccc1N2
inactive: A549 53 µM | ACHN 30.9 µM | CAKI-1 22.4 µM | CCRF-CEM 16.9 µM | EKVX 25.4 µM | HL-60 21.6 µM | HOP-62 20 µM | HOP-92 28.1 µM | MCF7 19.2 µM | MDA-MB-231 29.1 µM | MDA-N 19.3 µM | Malme-3M 21.4 µM | NCI-H23 30.8 µM | NCI-H522 19.1 µM | OVCAR-8 29.2 µM | SF-295 14 µM | SK-OV-3 16.4 µM | SW-620 31.2 µM

COc1cc(/C=C/c2ccc(OC)c(OC)c2)cc(OC)c1 [(E)-3,4,3',5'-TETRAMETHOXYSTILBENE]
inactive: A549 37.8 µM | ACHN 30.5 µM | CAKI-1 32.9 µM | CCRF-CEM 76.9 µM | EKVX 39.9 µM | HOP-62 63.7 µM | HOP-92 > 100 µM | MCF7 57 µM | MDA-MB-231 22.9 µM | Malme-3M 49.2 µM | NCI-H23 22.9 µM | NCI-H522 18.8 µM | OVCAR-8 39.6 µM | SF-295 22.2 µM | SK-OV-3 73.6 µM | SR 30.9 µM | SW-620 28.7 µM

CC1(C)O[C@@H](CP(c2ccccc2)c2ccccc2)[C@H](CP(c2ccccc2)c2ccccc2)O1
inactive: A549 2.93 µM | ACHN 15.2 µM | CAKI-1 21 µM | CCRF-CEM 2.4 µM | EKVX 6.38 µM | HOP-62 15.1 µM | HOP-92 8 µM | MDA-MB-231 5.85 µM | MDA-N 3.05 µM | Malme-3M 5.83 µM | NCI-H23 1.53 µM | NCI-H522 2.38 µM | OVCAR-8 4.06 µM | SF-295 5.62 µM | SK-OV-3 15.2 µM | SW-620 17.2 µM

CSCCCNC(=O)c1csc(-c2csc(CCN)n2)n1
inactive: A549 > 100 µM | ACHN > 100 µM | CAKI-1 > 100 µM | CCRF-CEM 75.2 µM | EKVX > 100 µM | HL-60 > 100 µM | HOP-62 > 100 µM | HOP-92 > 100 µM | MCF7 74.1 µM | MDA-MB-231 52.5 µM | Malme-3M 43.8 µM | NCI-H23 > 100 µM | NCI-H522 > 100 µM | OVCAR-8 > 100 µM | SF-295 > 100 µM | SK-OV-3 > 100 µM | SR 91.4 µM | SW-620 > 100 µM

Cc1cc(S(=O)(=O)Nc2cc(N)n[nH]2)c(SCc2nc(N)nc(N(C)C)n2)cc1Cl
inactive: A549 > 10 µM | ACHN > 10 µM | CAKI-1 > 10 µM | CCRF-CEM > 10 µM | EKVX > 10 µM | HL-60 > 10 µM | HOP-62 > 10 µM | HOP-92 > 10 µM | MCF7 > 10 µM | MDA-N > 10 µM | Malme-3M > 10 µM | NCI-H23 > 10 µM | NCI-H522 > 10 µM | OVCAR-8 > 10 µM | SF-295 > 10 µM | SK-OV-3 > 10 µM | SR > 10 µM | SW-620 > 10 µM

CC(C)OC(=O)NCCn1cc(-c2ccccc2)nn1
inactive: A549 > 100 µM | ACHN > 100 µM | CAKI-1 > 100 µM | CCRF-CEM > 100 µM | EKVX > 100 µM | HL-60 > 100 µM | HOP-62 > 100 µM | HOP-92 > 100 µM | MCF7 > 100 µM | MDA-MB-231 > 100 µM | Malme-3M > 100 µM | NCI-H23 > 100 µM | NCI-H522 > 100 µM | OVCAR-8 > 100 µM | SF-295 > 100 µM | SR > 100 µM

COc1cc(COC(=O)N2CCC2C(=O)O)c([N+](=O)[O-])cc1OC (stereo not given)
inactive: A549 > 100 µM | ACHN > 100 µM | CCRF-CEM > 100 µM | EKVX > 100 µM | HL-60 > 100 µM | HOP-62 > 100 µM | HOP-92 > 100 µM | MCF7 > 100 µM | MDA-N > 100 µM | Malme-3M > 100 µM | NCI-H23 > 100 µM | OVCAR-8 > 100 µM | SF-295 > 100 µM | SK-OV-3 > 100 µM | SR > 100 µM | SW-620 > 100 µM
